Source: patent US20070197509A1, “Compositions and methods for modulating gated ion channels” (PainCeptor Pharma Corporation, priority 2005, published 2007)
Entries after “also recorded” stand apart in the source; their conditions may differ.

Legend:
formalin-induced pain = assay: Formalin test, model of acute tonic pain; format: in vivo; settings: rat
Procedure: Male Sprague-Dawley rats are housed together in groups of three animals under standard conditions with unrestricted access to food and water. All experiments are conducted according to the ethical guidelines for investigations of experimental pain in conscious animals (Zimmerman, 1983)
Assessment of formalin-induced flinching behavior in normal, uninjured rats (body weight 150-180 g) was made with the use of an Automated Nociception Analyser (University of California, San Diego, USA). Briefly, this involved placing a small C-shaped metal band (10 mm wide×27 mm long) on the hindpaw of the rat to be tested. The rats (four rats were included in each testing session) were then placed in a cylindrical plexiglass observation chamber (diameter 30.5 cm and height 15 cm) for 20 min for adaptation purposes prior to being administered drug or vehicle according to the experimental paradigm being followed. […] Rats were then returned to their separate observation chambers, each of which were in turn situated upon an enclosed detection device consisting of two electromagnetic coils designed to produce an electromagnetic field in which movement of the metal band could be detected. […] A sampling interval of 1 min was used and on the basis of the resulting response patterns 5 phases of nociceptive behaviour were identified and scored: first phase (P1; 0-5 min), interphase (Int; 6-15 min), second phase (P2; […]), phase 2A (P2A; 16-40 min) and phase 2B (P2B; 41-60 min).
Nociceptive behavior was also determined manually every 5 min by measuring the amount of time spent in each of four behavioral categories: 0, treatment of the injected hindpaw is indistinguishable from that of the contralateral paw; 1, the injected paw has little or no weight placed on it; 2, the injected paw is elevated and is not in contact with any surface; 3, the injected paw is licked, bitten, or shaken. A weighted nociceptive score, ranging from 0 to 3 was calculated by multiplying the time spent in each category by the category weight, summing these products, and dividing by the total time for each 5 min block of time. […]

[1] = system: T1, hASIC3 (h3) and/or hASIC1a (h1a); assay: FlexStation/FLIPR assay, channel not marked in the cell; format: cell-based, human; settings: Table H, cells without channel mark; HEK293; read-out: EC50 (μM) Flex/FLIPR
T1 construct: EC50 (μM) in one experiment; HEK293
Text: The MES-induced peak calcium response (or change in membrane potential), in the presence of test substance, is expressed relative to the MES response alone. Test substances that block the MES-induced calcium response (or change in membrane potential) are re-tested in triplicates. Confirmed hits are picked for further characterization by performing full dose-response curves to determine potency of each hit compound as represented by the IC50 values (i.e., the concentration of the test substance which inhibits 50% of the MES-induced calcium and/or membrane potentiation response; see, for example, FIG. 1).
The data shown in Table H was acquired using the FlexStation assay described in Example 1 on HEK293 cells expressing hASIC3 (h3) and/or hASIC1a (h1a).

EC50 [1] [µM] | Structure (SMILES) | ED50 (formalin-induced pain; licking and biting episodes in phase IIa of the formalin test (FIG. 7), read-out: ED50 (dose where the pain score is reduced by half)) [mg/kg] | formalin-induced pain behavior (FIGS. 6A, 6B) (formalin-induced pain; manual scoring, overall pain behaviour and licking/biting, n=6) | formalin-induced pain, flinching / total pain score (FIG. 5) (formalin-induced pain; i.p. 30 min before formalin, Automated Nociception Analyser, phase 2, n=6)
> 10 | Cc1cc(OC2CCN(Cc3ccccc3)CC2)c2ccccc2n1 [Compound R, 4-(1-benzyl-piperidin-4-yloxy)-2-methyl-quinoline] | ~50 | dose-dependent effect; also recorded: dose-dependent reduction of the pain behavior | –
< 10 | COc1ccc(C(=O)CN2CCN(c3cc(C)nc4ccccc34)CC2)cc1 [Compound A, 1-(4-methoxy-phenyl)-2-[4-(2-methyl-quinolin-4-yl)-piperazin-1-yl]-ethanone] | – | – | able to reduce the total pain score behavior; also recorded: dose-dependent reduction of the pain intensity
